Experimental data published in patent publication US20160050919A1, “ACETYL-COA CARBOXYLASE INHIBITOR HERBICIDE AND AUXIN HERBICIDE FORMULATIONS” (Nufarm Americas, Inc., priority 2014, published 2016).

How the values were obtained:
[1] = Stability of active ingredients in the formulation, two weeks at 54° C.; conditions: for % wt after 2 week at 54° C. / Initial % wt: formulation of Table 5 (emulsion)
[2] = Stability of fenoxaprop-p-ethyl in the formulation at ambient temperature (~22° C.); format: physicochemical
Method: The formulation described in table 1 was tested for stability of all three active ingredients for two weeks at 54° C.

[3] = formulation of table 1 (micro emulsion, pH 6.7), two weeks at 54° C.
[4] = formulation of table 3 (emulsifiable concentrate), two weeks at 54° C.

| Structure (SMILES) | % wt after 2 week at 54° C. [1] [% wt] | Initial % wt [1] [% wt] | stability of active ingredient [1, 3] | stability of active ingredient [1, 4] | other results |
| --- | --- | --- | --- | --- | --- |
| Cc1cc(Cl)ccc1O[C@@H](C)C(=O)O [MCPP-p] | 1.39 | 1.53 | – | – | – |
| CCOC(=O)[C@@H](C)Oc1ccc(Oc2nc3ccc(Cl)cc3o2)cc1 [fenoxaprop-p-ethyl, Fenoxaprop-p-ethyl] | 0.60 | 0.60 | – | – | fenoxaprop-p-ethyl content, 2-week ([2]; formulation of table 1, 2 weeks): 2.61 wt %; fenoxaprop-p-ethyl content, 4-week ([2]; formulation of table 1, 4 weeks): 2.24 wt %; fenoxaprop-p-ethyl content, 6-week ([2]; formulation of table 1, 6 weeks): 2.15 wt %; fenoxaprop-p-ethyl content, 8-week ([2]; formulation of table 1, 8 weeks): 1.91 wt %; fenoxaprop-p-ethyl content, 12-week ([2]; formulation of table 1, 12 weeks): 1.28 wt %; fenoxaprop-p-ethyl content, 14-week ([2]; formulation of table 1, 14 weeks): 0.87 wt %; fenoxaprop-p-ethyl content, Initial ([2]; formulation of table 1, initial): 2.82 wt %; recovered after storage [1, 3]: 1% |
| COc1c(Cl)ccc(Cl)c1C(=O)O [Dicamba] | 0.45 | 0.64 | remained unchanged | remained unchanged | – |
| CCCCCCC(C)OC(=O)COc1nc(F)c(Cl)c(N)c1Cl (centres unmarked) [fluroxypyr MHE, Fluroxypyr MHE] | – | – | remained unchanged | remained unchanged | – |
| O=C(O)COc1nc(Cl)c(Cl)cc1Cl [Triclopyr, Triclopyr ACID] | 1.75 | 1.78 | – | – | – |
